Experimental data reported in US20140275063A1, “NEW ENZYME INHIBITOR COMPOUNDS” (PROXIMAGEN LIMITED, priority 2011, published 2014).
Where a name gives a salt, the structure may show the parent alone.

biological target: T1, human SSAO (Homo sapiens, UniProt Q16853); experiment: SSAO inhibitory activity (HRP-coupled hydrogen peroxide detection or 14C-benzaldehyde detection, benzylamine substrate); type: biochemical; details: purified recombinantly expressed human SSAO, benzylamine as substrate, RT
T1 construct: made in house
T1 sequence (Q16853 29-763 limits assumed): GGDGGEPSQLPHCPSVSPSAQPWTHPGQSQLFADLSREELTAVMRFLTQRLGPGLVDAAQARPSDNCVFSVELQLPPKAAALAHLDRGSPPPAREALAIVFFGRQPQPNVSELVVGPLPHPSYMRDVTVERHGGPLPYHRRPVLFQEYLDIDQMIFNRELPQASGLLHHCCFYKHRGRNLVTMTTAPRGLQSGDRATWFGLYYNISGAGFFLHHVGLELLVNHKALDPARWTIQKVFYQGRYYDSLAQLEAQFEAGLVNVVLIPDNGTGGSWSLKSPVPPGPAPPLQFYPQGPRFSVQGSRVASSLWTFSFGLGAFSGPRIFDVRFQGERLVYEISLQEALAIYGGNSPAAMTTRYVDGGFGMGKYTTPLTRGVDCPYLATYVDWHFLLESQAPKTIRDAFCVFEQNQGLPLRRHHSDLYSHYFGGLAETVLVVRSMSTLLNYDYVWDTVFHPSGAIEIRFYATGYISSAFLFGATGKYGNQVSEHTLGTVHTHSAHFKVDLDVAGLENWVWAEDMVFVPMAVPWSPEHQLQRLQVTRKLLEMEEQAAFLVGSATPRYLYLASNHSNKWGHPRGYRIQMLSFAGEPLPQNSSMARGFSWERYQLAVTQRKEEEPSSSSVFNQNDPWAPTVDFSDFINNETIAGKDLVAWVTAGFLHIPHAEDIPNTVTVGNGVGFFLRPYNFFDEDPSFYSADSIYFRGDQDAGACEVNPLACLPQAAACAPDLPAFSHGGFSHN
Summary of the method: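 Recombinant human SSAO with benzylamine, pre-incubated with compound about 15 min at RT. HRP/Amplex format: 50 mM sodium phosphate pH 7.4, enzyme 1 μg/ml, benzylamine 100 μM (≈Km), fluorescence read over 1-2 h. Radiometric format: 10 μg/ml enzyme, 40 μM [14C]benzylamine, 1 h. IC50 from four-parameter fits.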

IC50, < 100 nM:
NCCNC(=O)CC1COCCN1c1nn(-c2ccc(Cl)cc2)c2cnccc12 (stereo not drawn) [Compound 54, N-(2-Aminoethyl)-2-{4-[1-(4-chlorophenyl)-1H-pyrazolo[3,4-c]pyridin-3-yl]morpholin-3-yl}acetamide dihydrochloride]
CC(=O)NCCCNC(=O)N1CCC(c2cn(-c3ccc(Cl)cc3)c3cnccc23)CC1 [Compound 29, N-[3-({4-[1-(4-Chlorophenyl)-1H-pyrrolo[2,3-c]pyridin-3-yl]piperidin-1-yl}carbonylamino)propyl]acetamide]
CC(C)[C@H]1CN(C(=O)N2CCC(c3cn(-c4ccc(Cl)cc4)c4cnccc34)CC2)CCN1 [Compound 19, (3S)-1-({4-[1-(4-Chlorophenyl)-1H-pyrrolo[2,3-c]pyridin-3-yl]piperidin-1-yl}carbonyl)-3-(propan-2-yl) piperazine]
